Assay results: patent publication US11040954B1, “CXCR3 receptor agonists” (RECEPTOS LLC, priority 2016, dated 2021)

Biological target: T1, CXCR3 (Homo sapiens, UniProt P49682)
T1 construct: host or cells: CHO-K1 (cAMP Hunter CHOK1 CXCR3 Gi cell line)
T1 sequence (P49682 1-368): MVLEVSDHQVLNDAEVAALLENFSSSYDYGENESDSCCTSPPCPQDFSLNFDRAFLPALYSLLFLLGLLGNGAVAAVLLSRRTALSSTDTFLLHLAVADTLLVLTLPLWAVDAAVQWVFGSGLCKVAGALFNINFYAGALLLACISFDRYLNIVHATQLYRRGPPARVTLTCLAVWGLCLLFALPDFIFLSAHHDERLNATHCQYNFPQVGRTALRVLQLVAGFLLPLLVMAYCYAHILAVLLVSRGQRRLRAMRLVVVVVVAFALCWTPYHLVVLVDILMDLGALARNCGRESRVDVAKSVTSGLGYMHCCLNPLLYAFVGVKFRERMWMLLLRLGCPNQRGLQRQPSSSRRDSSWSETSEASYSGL
Experiment: CXCR3 cAMP agonist assay (cAMP Hunter CHOK1 CXCR3 Gi cell line, forskolin-stimulated, HitHunter cAMP detection)
Format: cell-based
Conditions: cAMP Hunter CHOK1 CXCR3 Gi cells, 20 μM forskolin, 30 minutes; read-out: Activity (CXCR3 cAMP agonist assay compound EC50)
Description: The cAMP Hunter™ CHOK1 CXCR3 Gi cell line was purchased from DiscoveRx. Cells were seeded into a 96-well white assay plate at 50,000 cells/well/94 μl assay buffer (Hank's Buffered Saline Solution, 10 mM HEPES, 0.1% fatty acid-free BSA, pH 7.4) and immediately assayed in suspension. Forskolin was added to 20 μM (5 μl of 400 μM stock) simultaneously with a 12-point dose response curve of compound at 0-10 μM (1 μl of 100× stock in 100% DMSO), and cells were incubated for 30 minutes. A cAMP standard curve is run as an assay control. A CXCL11 dose response was included to determine maximum efficacy. Direct detection of cAMP was carried out using the DiscoveRx HitHunter cAMP kit according to manufacturer's instructions, and luminescence was read using a SpectraMax M5 plate reader.

An EC50 of 0.05 to 0.25 µM was found for `Cc1cc(NC(=O)[C@H](CCN)NC(=O)[C@@H]2Cc3ccccc3CN2C(=O)CCC(=O)NCC2CCCCC2)ccc1Cl` [Compound 12-3] in this work.

With `NCC[C@H](NC(=O)[C@@H]1Cc2ccccc2CN1C(=O)CCC(=O)N1CCCCCC1)C(=O)Nc1ccc(Cl)c(Cl)c1F` [Compound 15-15] the EC50 was < 0.05 µM.

In the case of `Cc1cc(NC(=O)[C@H](CCN)NC(=O)[C@@H]2Cc3ccccc3CN2C(=O)CCC(=O)N2CCCC23CCC3)ncc1Cl` [Compound 12-156], the EC50 is reported as < 0.05 µM.

An EC50 of 0.25 to 0.5 µM was found for `O=C(CCC(=O)N1Cc2ccccc2C[C@H]1C(=O)N[C@@H](CCN1CCC(F)(F)C1)C(=O)Nc1ccc2c(c1)CCC2)c1ccccc1` [Compound 23-7] in this work.

In the case of `Cc1cc(NC(=O)[C@H](CCN)NC(=O)[C@@H]2Cc3ccccc3CN2C(=O)CCC(=O)N2C[C@H](C)C[C@H](C)C2)ccc1Cl` [Compound 12-39], the EC50 is reported as < 0.05 µM.

An EC50 of 0.05 to 0.25 µM was found for `Cc1cc(NC(=O)[C@H](CCN2CCNC(=O)C2)NC(=O)[C@@H]2Cc3ccccc3CN2C(=O)CCC(=O)c2ccccc2)ccc1Cl` [Compound 17-3] in this work.

An EC50 of 0.05 to 0.25 µM was found for `NCC[C@H](NC(=O)[C@@H]1Cc2ccccc2CN1C(=O)CCC(=O)c1ccccc1)C(=O)Nc1cc(Cl)c(Cl)cc1F` [Compound 2-20] in this work.

An EC50 of 0.05 to 0.25 µM was found for `NCC[C@H](NC(=O)[C@@H]1Cc2ccccc2CN1C(=O)CCC(=O)c1ccccc1)C(=O)Nc1ccc(Cl)cc1C(F)(F)F` [Compound 14-12] in this work.

An EC50 of 0.05 to 0.25 µM was found for `Cc1cc(NC(=O)[C@H](CCN)NC(=O)[C@@H]2Cc3ccccc3CN2C(=O)CCC(=O)N2CCN(CC#N)CC2)ccc1Cl` [Compound 12-117] in this work.

With `Cc1cc(NC(=O)[C@H](CCN)NC(=O)[C@@H]2Cc3ccccc3CN2C(=O)CCC(=O)N2CCCC[C@H]2C)ccc1Cl` [Compound 12-25] the EC50 was < 0.05 µM.

An EC50 of 0.05 to 0.25 µM was found for `NCC[C@H](NC(=O)[C@@H]1Cc2ccccc2CN1C(=O)CCC(=O)c1ccccc1)C(=O)Nc1cccc(C(F)(F)F)c1` [Compound 2-6] in this work.

An EC50 of 0.05 to 0.25 µM was found for `N#Cc1c(NC(=O)[C@H](CCN)NC(=O)[C@@H]2Cc3ccccc3CN2C(=O)CCC(=O)c2ccccc2)ccc(Cl)c1Cl` [Compound 14-26] in this work.

An EC50 of 0.25 to 0.5 µM was found for `NC(=O)NCCCC[C@H](NC(=O)[C@@H]1Cc2ccccc2CN1C(=O)CCC(=O)c1ccccc1)C(=O)Nc1ccc(Cl)c(Cl)c1` [Compound 3-6] in this work.

With `NCC[C@H](NC(=O)[C@@H]1Cc2ccccc2CN1C(=O)CCC(=O)c1ccccc1)C(=O)NC1Cc2ccccc2C1` [Compound 2-66] the EC50 was < 0.05 µM.

For `Cc1cc(NC(=O)[C@H](CCN)NC(=O)[C@@H]2Cc3ccccc3CN2C(=O)CCC(=O)N2CC[C@@H](N(C)C)C2)ccc1Cl` [Compound 12-50], the EC50 was < 0.05 µM.

An EC50 of 0.25 to 0.5 µM was found for `COc1ccccc1NC(=O)[C@H](CCCCN)NC(=O)[C@@H]1Cc2ccccc2CN1C(=O)CCC(=O)c1ccccc1` [Compound 1-6] in this work.

An EC50 of 0.05 to 0.25 µM was found for `Cc1cccc(NC(=O)C2(NC(=O)[C@@H]3Cc4ccccc4CN3C(=O)CCC(=O)c3ccccc3)CCNCC2)c1F` [Compound 13-3] in this work.

An EC50 of 0.05 to 0.25 µM was found for `COc1cc(F)c(C)cc1NC(=O)[C@H](CCN)NC(=O)[C@@H]1Cc2ccccc2CN1C(=O)CCC(=O)c1ccccc1` [Compound 2-60] in this work.

An EC50 of 0.05 to 0.25 µM was found for `O=C(CCC(=O)N1Cc2ccccc2C[C@H]1C(=O)N[C@@H](CCN1CC(F)(F)C1)C(=O)Nc1ccc2c(c1)CCC2)c1ccccc1` [Compound 23-6] in this work.

For `CN(C)C(=N)NCCC[C@H](NC(=O)[C@@H]1Cc2ccccc2CN1C(=O)CCC(=O)c1ccccc1)C(=O)Nc1ccc(Cl)c(Cl)c1` [Compound 5-1, (S)—N—((S)-1-((3,4-dichlorophenyl)amino)-5-(3,3-dimethylguanidino)-1-oxopentan-2-yl)-2-(4-oxo-4-phenylbutanoyl)-1,2,3,4-tetrahydroisoquinoline-3-carboxamide], the EC50 was < 0.05 µM.

An EC50 of 0.05 to 0.25 µM was found for `NCC[C@H](NC(=O)[C@@H]1Cc2ccccc2CN1C(=O)CCC(=O)c1ccccc1)C(=O)Nc1cc(Cl)ccc1F` [Compound 2-37] in this work.

In the case of `Cc1cc(NC(=O)[C@H](CCN)NC(=O)[C@@H]2Cc3ccccc3CN2C(=O)CCC(=O)N2[C@@H](C)CCC[C@@H]2C)ccc1Cl` [Compound 12-142], the EC50 is reported as < 0.05 µM.

With `Cc1cc(NC(=O)[C@H](CCN)NC(=O)[C@@H]2Cc3ccccc3CN2C(=O)CCC(=O)N2CCCCC2C(C)C)ccc1Cl` (stereo partly drawn) [Compound 12-121] the EC50 was < 0.05 µM.

In the case of `Cc1cc(NC(=O)[C@H](CCN)NC(=O)[C@@H]2Cc3ccccc3CN2C(=O)CCC(=O)N2CCC[C@@H]2C)ccc1Cl` [Compound 12-45], the EC50 is reported as < 0.05 µM.

An EC50 of 0.05 to 0.25 µM was found for `CCc1cc(Cl)c(Cl)cc1NC(=O)[C@H](CCN)NC(=O)[C@@H]1Cc2ccccc2CN1C(=O)CCC(=O)c1ccccc1` [Compound 2-30] in this work.

An EC50 of 0.05 to 0.25 µM was found for `CCc1c(Cl)ccc(NC(=O)[C@H](CCN)NC(=O)[C@@H]2Cc3ccccc3CN2C(=O)CCC(=O)c2ccccc2)c1Cl` [Compound 14-21] in this work.

`CCC1CCN(C(=O)CCC(=O)N2Cc3ccccc3C[C@H]2C(=O)N[C@@H](CCN)C(=O)Nc2ccc(Cl)c(C)c2)CC1` [Compound 12-61] was tested, and the EC50 was < 0.05 µM.

For `NCC[C@H](NC(=O)[C@@H]1Cc2ccccc2CN1C(=O)CCC(=O)c1ccccc1)C(=O)Nc1cccc(Cl)c1F` [Compound 2-34], the EC50 was < 0.05 µM.

`CC[C@H]1CN(C(=O)CCC(=O)N2Cc3ccccc3C[C@H]2C(=O)N[C@@H](CCN)C(=O)Nc2ccc(Cl)c(C)c2)CCN1C` [Compound 12-150] was tested, and the EC50 was < 0.05 µM.

For `NCC[C@H](NC(=O)[C@@H]1Cc2ccccc2CN1C(=O)CCC(=O)N1CCc2ccccc2C1)C(=O)Nc1ccc(Cl)c(Cl)c1F` [Compound 15-8], the EC50 was < 0.05 µM.

An EC50 of 0.25 to 0.5 µM was found for `NCCCC[C@H](NC(=O)[C@@H]1Cc2ccccc2CN1C(=O)CCC(=O)c1ccccc1)C(=O)Nc1ccc(C(F)(F)F)c(F)c1` [Compound 1-19] in this work.

An EC50 of 0.05 to 0.25 µM was found for `Cc1cc(NC(=O)[C@H](CCN)NC(=O)[C@@H]2Cc3ccccc3CN2C(=O)CCC(=O)N2CCN(C)C[C@@H]2C)ccc1Cl` [Compound 12-116] in this work.

For `Cc1cc(NC(=O)[C@H](CCN)NC(=O)[C@H]2Cc3ccccc3CN2C(=O)CCC(=O)c2ccccc2)ncc1Cl` [Compound 4-17], the EC50 was > 0.5 µM.

An EC50 of 0.05 to 0.25 µM was found for `Cc1cc(NC(=O)C(CC2CC[N+](C)(C)CC2)NC(=O)[C@@H]2Cc3ccccc3CN2C(=O)CCC(=O)c2ccccc2)ccc1Cl` (mixture of isomers) [Compound 6-2, 4-((S)-3-((4-chloro-3-methylphenyl)amino)-3-oxo-2-((S)-2-(4-oxo-4-phenylbutanoyl)-1,2,3,4-tetrahydroisoquinoline-3-carboxamido)propyl)-1,1-dimethylpiperidin-1-ium iodide] in this work.

An EC50 of 0.05 to 0.25 µM was found for `Cc1cc(NC(=O)[C@H](CCN)NC(=O)[C@@H]2Cc3ccccc3CN2C(=O)CCC(=O)NC(C)(C)C)ccc1Cl` [Compound 12-83] in this work.

In the case of `COc1ccc(C)cc1NC(=O)[C@H](CCN)NC(=O)[C@@H]1Cc2ccccc2CN1C(=O)CCC(=O)c1ccccc1` [Compound 1-38], the EC50 is reported as < 0.05 µM.

For `Cc1cc(NC(=O)[C@H](CCN)NC(=O)[C@@H]2Cc3ccccc3CN2C(=O)CCC(=O)N2CC3(COC3)C2)ccc1Cl` [Compound 12-9], the EC50 was > 0.5 µM.

For `Cc1cc(NC(=O)[C@H](CCN)NC(=O)[C@@H]2Cc3ccccc3CN2C(=O)CCC(=O)N2CCC[C@H](C)C2)ccc1Cl` [Compound 12-58], the EC50 was < 0.05 µM.

For `Cc1cc(NC(=O)[C@H](CCN)NC(=O)[C@@H]2Cc3ccccc3CN2C(=O)CCC(=O)N2CCN(C)c3ccccc32)ccc1Cl` [Compound 12-140], the EC50 was < 0.05 µM.

In the case of `NCCCC[C@H](NC(=O)[C@@H]1Cc2ccccc2CN1C(=O)CCC(=O)c1ccccc1)C(=O)Nc1ccc(F)c(F)c1` [Compound 1-21], the EC50 is reported as > 0.5 µM.

An EC50 of 0.05 to 0.25 µM was found for `Cc1cc(NC(=O)[C@H](Cc2cncs2)NC(=O)[C@@H]2Cc3ccccc3CN2C(=O)CCC(=O)c2ccccc2)ccc1Cl` [Compound 5-3] in this work.

An EC50 of 0.05 to 0.25 µM was found for `Cc1cc(Cl)ccc1NC(=O)[C@H](CCCCN)NC(=O)[C@@H]1Cc2ccccc2CN1C(=O)CCC(=O)c1ccccc1` [Compound 1-24] in this work.

An EC50 of 0.05 to 0.25 µM was found for `NC(=O)NCCC[C@H](NC(=O)[C@@H]1Cc2ccccc2CN1C(=O)CCC(=O)c1ccccc1)C(=O)Nc1ccc(Cl)c(Cl)c1` [Compound 3-1, (S)—N—((S)-1-((3,4-dichlorophenyl)amino)-1-oxo-5-ureidopentan-2-yl)-2-(4-oxo-4-phenylbutanoyl)-1,2,3,4-tetrahydroisoquinoline-3-carboxamide] in this work.

An EC50 of 0.05 to 0.25 µM was found for `CCc1c(C)cccc1NC(=O)[C@H](CCN)NC(=O)[C@@H]1Cc2ccccc2CN1C(=O)CCC(=O)c1ccccc1` [Compound 2-53] in this work.

An EC50 of 0.05 to 0.25 µM was found for `NCC[C@H](NC(=O)[C@@H]1Cc2ccccc2CN1C(=O)CCC(=O)c1ccccc1)C(=O)Nc1ccc(Cl)cc1F` [Compound 2-9] in this work.

An EC50 of 0.05 to 0.25 µM was found for `Cc1cc(NC(=O)[C@H](Cc2ccnc(N)c2)NC(=O)[C@@H]2Cc3ccccc3CN2C(=O)CCC(=O)c2ccccc2)ccc1Cl` [Compound 3-10] in this work.

With `CN(C)[C@@H]1CCN(C(=O)CCC(=O)N2Cc3ccccc3C[C@H]2C(=O)N[C@@H](CCN)C(=O)Nc2ccc(Cl)c(Cl)c2F)C1` [Compound 15-31] the EC50 was < 0.05 µM.

An EC50 of 0.25 to 0.5 µM was found for `CC(C)N(C(=O)CCC(=O)N1Cc2ccccc2C[C@H]1C(=O)N[C@@H](CCN)C(=O)Nc1ccc(Cl)c(Cl)c1F)C(C)C` [Compound 15-39] in this work.
